Read-outs that look alike come from different tables or passages of the source.
How the values were obtained:
[1] = test system: FaDu xenograft tumor histocultures; assay: [3H]paclitaxel penetration by autoradiography; type: in vitro ADME, human; details: 120 nM
Procedure: The autoradiographic method was as described previously (Lesser G J et al. (1995) Cancer Chemother Pharmacol 37:173–178). […] Tissue samples were mounted on cryostat chucks with embedding matrix (O.C.T. Compound, Miles Inc., Ellchart, Ind.) and cut into 10 μm thick sections in a cryostat at −20° C. […] The slides containing the tissue sections were placed against tritium-sensitive film (Ultrofilm) in an X-ray cassette and exposed for one to two weeks at room temperature. The films were developed for 3–5 minutes at room temperature (D-19 Developer), placed in a stop bath for 30 seconds, immersed in fixer for 3 minutes and exposed to running room temperature water for 15 minutes. The films were then rinsed in Photo-flo 200 and allowed to air-dry. Separately, the tissue section slides were stained with hematoxylin and eosin.
The threshold for the autoradiographic image was adjusted to minimize the background signal.

[2] = test system: FaDu xenograft tumor histocultures; assay: Apoptotic cell fraction in paclitaxel-treated histocultures (Example 1); type: cell-based, human
Procedure: The fractions of stromal tissue and tumor cells in each histoculture were measured using image analysis. Briefly, stromal and tumor cells of a 100× magnification field were outlined with the computer mouse. The sizes of each of these regions were determined via image analysis by counting the number of pixels in the region. […] Apoptotic cells were determined based on morphological changes in tumor cells such as chromatin condensation and margination, disappearance of nucleoli, formation of membrane blebs, apoptotic bodies and/or cell shrinkage (Kerr J F R et al. (1994) Cancer 73:2013). […] For each tumor piece, 50 to 100 images were processed, and the fractions of the tumor represented by tumor cells, stromal tissue, and interstitial space were calculated.

FaDu tumor histocultures [3] = details: for time at which even distribution in tumor was attained: with pretreatment
From the text: The histocultures were transferred to a collagen gel presoaked with drug-containing medium for at least 8 hr. The latter was to ascertain that the drug concentration in the medium inside the collagen gel was at equilibrium with the surrounding medium, in order to eliminate the delay in drug transport from medium through the collage gel. Drug treatment was terminated by transferring histocultures to a collagen gel presoaked with drug-free medium. Histocultures were transferred using a pair of hooked forceps and care was exercised to avoid squeezing or pinching.
The total drug concentration in tumor histocultures was measured as described in Example 1. […] Thirty to 35 tumor histocultures were used for each time point.
One schedule used 50% of the total C×T to induce apoptosis, whereas the other schedule used continuous treatment. […] The fraction of apoptotic cells and cell density were determined by counting the number of total and apoptotic tumor cells in 400× microscopic fields (3 fields per tumor).

FaDu tumor histocultures [4] = assay: Apoptotic fraction and cell density with or without apoptosis-inducing pretreatment, in vitro; type: cell-based, human; set-up: Cell density: unit not given here
Procedure: Drug treatment was as previously described.
Two studies were performed.

[5] = 50 nM x 24 hr, 24 hr after initiation of treatment
[6] = 50 nM x 24 hr, 36 hr after initiation of treatment
[7] = 600 nM x 1 hr, 23 hr later 50 nM x 12 hr, 24 hr after initiation of treatment
[8] = 600 nM x 1 hr, 23 hr later 50 nM x 12 hr, 36 hr after initiation of treatment
[9] = 10 nM [3H]paclitaxel, 4 hr, with pretreatment by 1:M nonradiolabeled paclitaxel
[10] = 10 nM [3H]paclitaxel, 4 hr, without pretreatment
[11] = 10 nM [3H]paclitaxel, 16 hr, with pretreatment by 1:M nonradiolabeled paclitaxel
[12] = 10 nM [3H]paclitaxel, 16 hr, without pretreatment
[13] = 10 nM [3H]paclitaxel, 24 hr, with pretreatment by 1:M nonradiolabeled paclitaxel
[14] = 10 nM [3H]paclitaxel, 24 hr, without pretreatment
[15] = 10 nM [3H]paclitaxel, 32 hr, with pretreatment by 1:M nonradiolabeled paclitaxel
[16] = 10 nM [3H]paclitaxel, 32 hr, without pretreatment
[17] = 10 nM [3H]paclitaxel, 48 hr, with pretreatment by 1:M nonradiolabeled paclitaxel
[18] = 10 nM [3H]paclitaxel, 48 hr, without pretreatment
[19] = 10 nM [3H]paclitaxel, 72 hr, with pretreatment by 1:M nonradiolabeled paclitaxel
[20] = 10 nM [3H]paclitaxel, 72 hr, without pretreatment
[21] = 50 nM [3H]paclitaxel, 4 hr, with pretreatment by 1:M nonradiolabeled paclitaxel
[22] = 50 nM [3H]paclitaxel, 4 hr, without pretreatment
[23] = 50 nM [3H]paclitaxel, 16 hr, with pretreatment by 1:M nonradiolabeled paclitaxel
[24] = 50 nM [3H]paclitaxel, 16 hr, without pretreatment
[25] = 50 nM [3H]paclitaxel, 24 hr, with pretreatment by 1:M nonradiolabeled paclitaxel
[26] = 50 nM [3H]paclitaxel, 24 hr, without pretreatment
[27] = 50 nM [3H]paclitaxel, 32 hr, with pretreatment by 1:M nonradiolabeled paclitaxel
[28] = 50 nM [3H]paclitaxel, 32 hr, without pretreatment
[29] = 50 nM [3H]paclitaxel, 48 hr, with pretreatment by 1:M nonradiolabeled paclitaxel
[30] = 50 nM [3H]paclitaxel, 48 hr, without pretreatment
[31] = 50 nM [3H]paclitaxel, 72 hr, with pretreatment by 1:M nonradiolabeled paclitaxel
[32] = 50 nM [3H]paclitaxel, 72 hr, without pretreatment

CC(=O)O[C@H]1C(=O)[C@@]2(C)[C@H]([C@H](OC(=O)c3ccccc3)[C@]3(O)C[C@H](OC(=O)[C@H](O)[C@@H](NC(=O)c4ccccc4)c4ccccc4)C(C)=C1C3(C)C)[C@]1(OC(C)=O)CO[C@@H]1C[C@@H]2O [paclitaxel] was tested, and the cell layers penetrated ([1]; during the first 24 hours) was 15 cell layers, the cell layers penetrated ([1]; during the second 24 hours) was greater than 80 cell layers and the “fraction of apoptotic cells” value ([2]; 12 nM, remained relatively constant) was no less than 7%. For the same molecule, the “fraction of apoptotic cells” value ([2]; 120 nM, at 24 hours) was roughly 30%, the “fraction of apoptotic cells” value ([2]; 120 nM, at 72 hours) was roughly 50% and the “time at which even distribution in tumor was attained” value (FaDu tumor histocultures [3]; 10 nM) was 72 h. The Paclitaxel in tumor (FaDu tumor histocultures [3]; [5]) was 3.11 ± 0.31 :M, the Paclitaxel in tumor (FaDu tumor histocultures [3]; [6]) was 2.01 ± 0.32 :M and the “time at which even distribution in tumor was attained” value (FaDu tumor histocultures [3]; 50 nM) was 24 h. For the same molecule, the “time of even distribution throughout the tumor” value (FaDu tumor histocultures [3]; 50 nM, without pretreatment) was no more than 72 h, the Paclitaxel in tumor (FaDu tumor histocultures [3]; [7]) was 2.68 ± 0.31 :M and the Paclitaxel in tumor (FaDu tumor histocultures [3]; [8]) was 4.33 ± 0.29 :M. For the same molecule, the paclitaxel penetration (FaDu tumor histocultures [3]; control group, 50 nM continuously for 24 hr, during the next 12 hr) was “less than 20 cell layers”, the “higher drug accumulation in pretreatment group vs control group” value (FaDu tumor histocultures [3]; end of drug treatment (36 hr vs 24 hr), equal CxT 1,200 nM·hr) was 40% and the “time of even drug distribution throughout histocultures” value (FaDu tumor histocultures [3]; pretreatment group, 600 nM 1 hr, 23 hr drug-free, 50 nM 12 hr) was 36 h. For the same molecule, the Apoptotic fraction (FaDu tumor histocultures [4]; [9]) was 23.6 ± 1.3%, the Cell density (FaDu tumor histocultures [4]; [9]) was 64.2 ± 3.5 and the Apoptotic fraction (FaDu tumor histocultures [4]; [10]) was 3.93 ± 0.87%. The Cell density (FaDu tumor histocultures [4]; [10]) was 86.3 ± 4.0, the Apoptotic fraction (FaDu tumor histocultures [4]; [11]) was 24.6 ± 4.8% and the Cell density (FaDu tumor histocultures [4]; [11]) was 64.3 ± 1.8. The Apoptotic fraction (FaDu tumor histocultures [4]; [12]) was 4.98 ± 0.84%, the Cell density (FaDu tumor histocultures [4]; [12]) was 80.2 ± 2.9 and the Apoptotic fraction (FaDu tumor histocultures [4]; [13]) was 26.6 ± 2.4%. The Cell density (FaDu tumor histocultures [4]; [13]) was 64.0 ± 5.2, the Apoptotic fraction (FaDu tumor histocultures [4]; [14]) was 7.32 ± 1.80% and the Cell density (FaDu tumor histocultures [4]; [14]) was 81.6 ± 2.5. It also gave an Apoptotic fraction (FaDu tumor histocultures [4]; [15]) of 30.1 ± 3.4%, a Cell density (FaDu tumor histocultures [4]; [15]) of 60.1 ± 4.2 and an Apoptotic fraction (FaDu tumor histocultures [4]; [16]) of 6.64 ± 1.07%. The Cell density (FaDu tumor histocultures [4]; [16]) was 79.9 ± 2.1, the Apoptotic fraction (FaDu tumor histocultures [4]; [17]) was 34.9 ± 5.2% and the Cell density (FaDu tumor histocultures [4]; [17]) was 62.3 ± 3.1. For the same molecule, the Apoptotic fraction (FaDu tumor histocultures [4]; [18]) was 9.18 ± 1.31%, the Cell density (FaDu tumor histocultures [4]; [18]) was 77.8 ± 3.0 and the Apoptotic fraction (FaDu tumor histocultures [4]; [19]) was 31.0 ± 4.4%. The Cell density (FaDu tumor histocultures [4]; [19]) was 61.0 ± 2.2, the Apoptotic fraction (FaDu tumor histocultures [4]; [20]) was 11.0 ± 1.7% and the Cell density (FaDu tumor histocultures [4]; [20]) was 82.6 ± 2.2. The Apoptotic fraction (FaDu tumor histocultures [4]; [21]) was 26.3 ± 5.4%, the Cell density (FaDu tumor histocultures [4]; [21]) was 63.1 ± 4.5 and the Apoptotic fraction (FaDu tumor histocultures [4]; [22]) was 2.74 ± 0.12%. It also gave a Cell density (FaDu tumor histocultures [4]; [22]) of 85.8 ± 3.6, an Apoptotic fraction (FaDu tumor histocultures [4]; [23]) of 36.0 ± 3.9% and a Cell density (FaDu tumor histocultures [4]; [23]) of 60.8 ± 4.9. The Apoptotic fraction (FaDu tumor histocultures [4]; [24]) was 7.97 ± 2.03%, the Cell density (FaDu tumor histocultures [4]; [24]) was 83.9 ± 3.3 and the Apoptotic fraction (FaDu tumor histocultures [4]; [25]) was 36.4 ± 2.0%. It also gave a Cell density (FaDu tumor histocultures [4]; [25]) of 58.3 ± 1.1, an Apoptotic fraction (FaDu tumor histocultures [4]; [26]) of 17.0 ± 2.8% and a Cell density (FaDu tumor histocultures [4]; [26]) of 77.0 ± 3.8. It also gave an Apoptotic fraction (FaDu tumor histocultures [4]; [27]) of 37.4 ± 4.5%, a Cell density (FaDu tumor histocultures [4]; [27]) of 53.2 ± 2.1 and an Apoptotic fraction (FaDu tumor histocultures [4]; [28]) of 19.1 ± 2.5%. The Cell density (FaDu tumor histocultures [4]; [28]) was 71.2 ± 4.6, the Apoptotic fraction (FaDu tumor histocultures [4]; [29]) was 39.8 ± 3.1% and the Cell density (FaDu tumor histocultures [4]; [29]) was 53.6 ± 2.4. It also gave an Apoptotic fraction (FaDu tumor histocultures [4]; [30]) of 28.3 ± 2.9%, a Cell density (FaDu tumor histocultures [4]; [30]) of 68.8 ± 2.5 and an Apoptotic fraction (FaDu tumor histocultures [4]; [31]) of 37.9 ± 3.4%. The Cell density (FaDu tumor histocultures [4]; [31]) was 47.8 ± 3.2, the Apoptotic fraction (FaDu tumor histocultures [4]; [32]) was 27.2 ± 3.0% and the Cell density (FaDu tumor histocultures [4]; [32]) was 61.1 ± 2.8. The Apoptotic fraction (FaDu tumor histocultures [4]; [5]) was 15.2%, the Cell density (FaDu tumor histocultures [4]; [5]) was 71.3 ± 2.9 and the Apoptotic fraction (FaDu tumor histocultures [4]; [6]) was 17.0%. It also gave a Cell density (FaDu tumor histocultures [4]; [6]) of 72.6 ± 3.2, an Apoptotic fraction (FaDu tumor histocultures [4]; [7]) of 20.3 ± 4.3% and a Cell density (FaDu tumor histocultures [4]; [7]) of 60.9 ± 1.3. The Apoptotic fraction (FaDu tumor histocultures [4]; [8]) was 25.4 ± 3.4%, the Cell density (FaDu tumor histocultures [4]; [8]) was 62.4 ± 4.2 and the “apoptosis caused by pretreatment” value (FaDu tumor histocultures [4]; 1,000 nM nonradiolabeled paclitaxel for 3 hr, at 24 hr, preliminary study) was roughly 30%.

Reference: patent US7217735B1, “Methods and compositions for enhancing delivery of therapeutic agents to tissues” (priority 1999, dated 2007)
